Experimental findings from US20260284115A1, “THERAPEUTICS AND METHODS” (CAMBRIDGE ENTERPRISE LIMITED, priority 2022, published 2026) are described below.

In this test the test system is NALCN. Briefly: Circulating ZsGreen+ cells (CZCs) in peripheral blood of non-tumour-bearing mice after NALCN blockade. It counts as in vivo. Particulars: Prom1^CreERT2/Lacz; Rosa26^ZSG; Nalcn^+/+ mice without oncogenic alleles, n=10; FIG. 1a. The protocol:
Peripheral blood (500 μl-1 ml) was harvested from mice at autopsy into 10 μl of 0.5M EDTA, diluted in PBS and assessed by MACSQuant Analyzer (Miltenyi Biotech Inc.) for ZSgreen expression (525/50 nm [FITC] vs 614/50 nm [PI]). Cells for single cell RNA sequencing and tail vein injection were sorted using a BD FACSAria II Cell Sorter (BD Biosciences) excitation at 525/50 nm (FITC) vs 614/50 nm (PI). Non-tamoxifen induced mouse peripheral blood served as a negative control to set gate parameters. Twenty-five thousand ZSG^+ cells were sorted and injected into recipient NOD SCID gamma mice (Charles River) and aged. For serial dilution assessment of tCZC metastasis initiation, tCZCs were isolated from donor tumour-bearing via FACS based on ZSGreen expression and placed into culture medium. Culture medium: Advanced DMEM/F12 (31330038, ThermoFisher), 2 mM L-glutamine (25030024, ThermoFisher), B27 (12587010, ThermoFisher), N2 (A1370701, ThermoFisher), containing growth factors (50 ng/ml EGF [Peprotech], 100 ng/ml bFGF [100-18c, Peprotech] and 1% FBS (10500064, ThermoFisher). Cells were grown at 37° C. in 5% CO2. Recipient NOD SCID gamma mice (Charles River) were injected with either 10, 100, 1,000 or 10,000 tCZC cells via tail-vein injection and aged. Full autopsy and tissue harvesting were performed as described above.

Take `[Cl][Gd]([Cl])[Cl]` [Gadolinium chloride]: the “numbers of CZCs (circulating ZSG+ cells) in peripheral blood; stem cell-like cell shedding” value was “significantly increased”.
